The target in the assay is JAK2 (recombinant purified GST-tagged catalytic domain) (Homo sapiens (Human), UniProt O60674). As to the kind of experiment: biochemical.

A word on the IC50: it is the concentration that gives 50% inhibition.
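Also: biochemical JAK kinase assay with HTRF detection.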

Sequence of JAK2 (recombinant purified GST-tagged catalytic domain) (O60674 849-1124): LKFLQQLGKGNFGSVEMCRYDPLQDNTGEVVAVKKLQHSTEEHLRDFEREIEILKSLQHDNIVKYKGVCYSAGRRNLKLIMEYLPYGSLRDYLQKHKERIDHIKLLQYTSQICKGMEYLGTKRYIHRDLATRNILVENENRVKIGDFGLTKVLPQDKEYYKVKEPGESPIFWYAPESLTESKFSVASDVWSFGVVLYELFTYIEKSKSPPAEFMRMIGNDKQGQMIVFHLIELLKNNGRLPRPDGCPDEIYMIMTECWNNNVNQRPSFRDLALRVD

Consider `N#C[C@H]1C[C@@H](NCC(F)F)CC[C@@H]1n1cc(C(N)=O)c(Nc2ccnc(F)c2)n1` (single isomer, unassigned) [Example 28-115, 1-{(1S,2S,4S or 1R,2R,4R)-2-cyano-4-[(2,2-difluoroethyl)amino]cyclohexyl}-3-[(2-fluoropyridin-4-yl)amino]-1H-pyrazole-4-carboxamide], for which the IC50 worked out at 33 nM.
As for `CC(C)(C)OC(=O)N[C@@H]1CC[C@H](C#N)C(n2cc(C(N)=O)c(Nc3ccc(F)cc3)n2)C1` (single isomer, unassigned) [Example 44-2, tert-Butyl[(1R,3S,4S or 1S,3R,4R)-3-{4-carbamoyl-3-[(4-fluorophenyl)amino]-1H-pyrazol-1-yl}-4-cyanocyclohexyl]carbamate], the IC50 is 990 nM.
Regarding `CC1(C)CN([C@@H]2CC[C@H](n3cc(C(N)=O)c(Nc4ccc(C(F)(F)F)cc4)n3)[C@@H](C#N)C2)C1` (single isomer, unassigned) [Example 28-203, 1-[(1S,2S,4R or 1R,2R,4S)-2-cyano-4-(3,3-dimethylazetidin-1-yl)cyclohexyl]-3-{[4-(trifluoromethyl)phenyl]amino}-1H-pyrazole-4-carboxamidc], the IC50 was found to be 285 nM.
Next, `N#C[C@H]1C[C@@H](N2CCC2)CC[C@@H]1n1cc(C(N)=O)c(Nc2ccc([C@H](O)C(F)(F)F)cc2)n1` (single isomer, unassigned) [Example 28-47, 1-[(1S,2S,4S or 1R,2R,4R)-4-azetidin-1-yl-2-cyanocyclohexyl]-3-({4-[(1S or 1R)-2,2,2-trifluoro-1-hydroxyethyl]phenyl}amino)-1H-pyrazole-4-carboxamide]: 11 nM; `N#C[C@H]1C[C@@H](NCC(F)F)CCC1n1cc(C(N)=O)c(Nc2ccc(S(=O)(=O)C(F)(F)F)cc2)n1` (mixture of isomers) [Example 27-14, 1-{(1S,2S,4S and 1R,2R,4R)-2-cyano-4-[(2,2-difluoroethyl)amino]cyclohexyl}-3-({4-[(trifluoromethyl)sulfonyl]phenyl)amino)-1H-pyrazole-4-carboxamide]: 11 nM; `N#C[C@H]1CC(N2CCC[C@@H]2CF)CC[C@@H]1n1cc(C(N)=O)c(Nc2ccc(S(=O)(=O)C(F)(F)F)cc2)n1` (single isomer, unassigned) [Example 28-156, 1-{(1S,2S or 1R,2R)-2-cyano-4-[(2R)-2-(fluoromethyl)pyrrolidin-1-yl]cyclohexyl}-3-({4-[(trifluoro-methyl)sulfonyl]phenyl}amino)-1H-pyrazole-4-carboxamide]: 14 nM.
Next, `N#C[C@H]1CCCC[C@@H]1n1cc(C(N)=O)c(Nc2ccc(Cl)c(F)c2)n1` (racemic) [Example 17-56, 3-[(4-chloro-3-fluorophenyl)amino]-1-[(1S,2S and 1R,2R)-2-cyanocyclohexyl]-1H-pyrazole-4-carboxamide]: 37 nM; `N#C[C@H]1C[C@H](OCC2CC2)CC[C@@H]1n1cc(C(N)=O)c(Nc2ccc([C@H](O)C(F)(F)F)cc2)n1` (single isomer, unassigned) [Example 26-7, 1-[(1S,2S,4R or 1R,2R,4S)-2-cyano-4-(cyclopropylmethoxy)cyclohexyl]-3-({4-[(1S or 1R)-2,2,2-trifluoro-1-hydroxyethyl]phenyl]amino)-1H-pyrazole-4-carboxamide]: 9 nM.
Next, `CN(C)[C@H]1CC[C@@H](n2cc(C(N)=O)c(Nc3ccc(C(F)(F)F)nc3)n2)[C@H](C#N)C1` (single isomer, unassigned) [Example 28-27, 1-[(1R,2R,4S or 1S,2S,4R)-2-cyano-4-(dimethylamino)cyclohexyl]-3-{[6-(trifluoromethyl)pyridin-3-yl]amino}-1H-pyrazole-4-carboxamide]: 800 nM.
For `CN(C)[C@H]1CC[C@H](n2cc(C(N)=O)c(Nc3ccc(OC(F)(F)F)cc3)n2)[C@@H](C#N)C1` (single isomer, unassigned) [Example 28-86, 1-[(1S,2S,4S or 1R,2R,4R)-2-cyano-4-(dimethylamino)cyclohexyl]-3-{[4-(trifluoromethoxy)phenyl]amino}-1H-pyrazole-4-carboxamide], the IC50 is 18 nM.
For the compound `CC(C)(N[C@H]1CCC(n2cc(C(N)=O)c(Nc3ccccc3)n2)[C@@H](C#N)C1)C1CC1` (single isomer, unassigned) [Example 28-214, 1-{(1S,2S,4S or 1R,2R,4R)-2-cyano-4-[(1-cyclopropyl-1-methylethyl)amino]cyclohexyl}-3-(phenylamino)-1H-pyrazole-4-carboxamide], the IC50 was found to be 38 nM.
The value for `N#C[C@H]1C[C@@H](OCC2CC2)CC[C@@H]1n1cc(C(N)=O)c(Nc2ccc(F)cc2)n1` (single isomer, unassigned) [Example 26-9, 1-[(1S,2S,4S or 1R,2R,4R)-2-cyano-4-(cyclopropylmethoxy)cyclohexyl]-3-[(4-fluorophenyl)amino]-1H-pyrazole-4-carboxamide] was 33 nM.
Next, `CN(C)[C@@H]1CC[C@H](n2cc(C(N)=O)c(Nc3ccc(C(F)(F)F)cc3)n2)[C@@H](C#N)C1` (single isomer, unassigned) [Example 28-189, 1-[(1S,2S,4R or 1R,2R,4S)-2-cyano-4-(dimethylamino)cyclohexyl]-3-{[4-(trifluoromethyl)phenyl]amino}-1H-pyrazole-4-carboxamide]: 21 nM; `N#C[C@H]1C[C@H](OC(=O)Nc2ccccc2)CCC1n1cc(C(N)=O)c(Nc2ccc(F)cc2)n1` (mixture of isomers) [Example 34-3, (1R,3S,4S and 1S,3R,4R)-4-{4-carbamoyl-3-[(4-fluorophonyl)aminol-1H-pyrazol-1-yl}-3-cyanocyclohexyl phenylcarbamate]: 13 nM.
Next, `N#C[C@H]1CCCC[C@@H]1n1cc(C(N)=O)c(Nc2cnc3cc(Cl)ccc3c2)n1` (single isomer, unassigned) [Example 17-61, 3-[(7-chloroquinolin-3-yl)amino]-1-[(1S,2S or 1R,2R)-2-cyanocyclohexyl]-1H-pyrazole-4-carboxamide]: 21 nM; `CS(=O)(=O)c1ccc(Nc2nn(C3CCCC[C@@H]3C#N)cc2C(N)=O)cc1F` (mixture of isomers) [Example 17-8, 1-[(1S,2S and 1R,2R)-2-cyanocyclohexyl]-3-{[3-fluoro-4-(methylsulfonyl)phenyl]amino}-1H-pyrazole-4-carboxamide]: 10 nM; `CC1(CN[C@H]2CC[C@H](n3cc(C(N)=O)c(Nc4ccc(C(F)(F)F)cc4)n3)[C@@H](C#N)C2)COC1` (single isomer, unassigned) [Example 28-26, 1-[(1S,2S,4S or 1R,2R,4R)-2-cyano-4-{[(3-methyloxetan-3-yl)methyl]amino}cyclohexyl]-3-{[4-(trifluoromethyl)phenyl]amino}-1H-pyrazole-4-carboxamide]: 35 nM.
With `CCS(=O)(=O)c1ccc(Nc2nn(C3CCCC[C@@H]3C#N)cc2C(N)=O)cc1` (mixture of isomers) [Example 17-10, 1-[(1S,2S and 1R,2R)-2-cyanocyclohexyl]-3-{[4-(ethylsulfonyl)phenyl]amino}-1H-pyrazole-4-carboxamide], the IC50 is 4 nM.
Next, `N#C[C@H]1C[C@H](NCC2CC2)CC[C@@H]1n1cc(C(N)=O)c(Nc2ccc(S(=O)(=O)C(F)(F)F)cc2)n1` (single isomer, unassigned) [Example 28-173, 1-{(1S,2S,4R or 1R,2R,4S)-2-cyano-4-[(cyclopropyl-methyl)amino]cyclohexyl}-3-({4-[(trifluoro-methyl)sulfonyl]phenyl}amino)-1H-pyrazole-4-carboxamide]: 24 nM.
Next, `N#C[C@H]1C[C@@H](NCC2CC2)CC[C@@H]1n1cc(C(N)=O)c(Nc2ccc(S(=O)(=O)C(F)(F)F)cc2)n1` (single isomer, unassigned) [Example 28-172, 1-{(1S,2S,4S or 1R,2R,4R)-2-cyano-4-[(cyclopropylmethyl)amino]cyclo-hexyl}-3-({4-[(trifluoromethyl)sulfonyl]phen-yl}amino)-1H-pyrazolc-4-carboxamide]: 8 nM; `N#C[C@H]1C[C@H](OCC2CC2)CC[C@@H]1n1cc(C(N)=O)c(Nc2ccc([C@@H](O)C(F)(F)F)cc2)n1` (single isomer, unassigned) [Example 26-5, 1-[(1S,2S,4R or 1R,2R,4S)-2-cyano-4-(cyclopropylmethoxy)cyclohexyl]-3-({4-[(1R or 1S)-2,2,2-trifluoro-1-hydroxyethyl]phenyl}amino)-1H-pyrazole-4-carboxamide]: 14 nM.
The value for `CN(C)[C@@H]1CC[C@H](n2cc(C(N)=O)c(Nc3ccc(OC(F)(F)F)cc3)n2)[C@@H](C#N)C1` (single isomer, unassigned) [Example 28-54, 1-[(1S,2S,4R or 1R,2R,4S)-2-cyano-4-(dimethylamino)cyclohexyl]-3-{[4-(trifluoromethoxy)phenyl]amino}-1H-pyrazole-4-carboxamide] was 92 nM.
`CC(C)(c1ccc(Nc2nn([C@H]3CCCC[C@@H]3C#N)cc2C(N)=O)cc1F)[C@@H](O)C(F)(F)F` (single isomer, unassigned) [Example 17-33, 1-[(1S,2S or 1R,2R)-2-cyanocyclohexyl]-3-({3-fluoro-4-[(2R or 2S)-3,3,3-trifluoro-2-hydroxy-1,1-dimethylpropyl]phenyl}amino)-1H-pyrazole-4-carboxamide]: the IC50 came to 4 nM.
Consider `N#C[C@H]1CC(N2CCC[C@H]2CF)CC[C@@H]1n1cc(C(N)=O)c(Nc2ccc(S(=O)(=O)C(F)(F)F)cc2)n1` (single isomer, unassigned) [Example 28-157, 1-{(1S,2S or 1R,2R)-2-cyano-4-[(2S)-2-(fluoromethyl)pyrrolidin-1-yl]cyclohexyl}-3-({4-[(trifluoro-methyl)sulfonyl]phenyl}amino)-1H-pyrazole-4-carboxamide], for which the IC50 turned out to be 28 nM.
On to `C[C@H](N[C@H]1CC[C@H](n2cc(C(N)=O)c(Nc3ccc(S(=O)(=O)C(F)(F)F)cc3)n2)[C@@H](C#N)C1)C1CC1` (single isomer, unassigned) [Example 28-184, 1-{(1S,2S,4S or 1R,2R,4R)-2-cyano-4-[(1-cyclopropylethyl)amino]cyclo-hexyl}-3-({4-[(trifluoromethyl)sulfonyl]phen-yl}amino)-1H-pyrazole-4-carboxamide], for which the half-maximal inhibitory concentration (IC50) was 23 nM.

For the origin of these results see patent US8962608B2, “Cycloalkylnitrile pyrazole carboxamides as janus kinase inhibitors” (Merck Sharp & Dohme Corp., priority 2011, dated 2015).
